Target: T1, cannabinoid CB1 (Homo sapiens, UniProt P21554)
T1 construct: purchased
Assay: Competition binding assay for cannabinoid CB1 affinity (3H-CP55,940 displacement)
Experimental: Competition binding assays for cannabinoid CB1 and CB2 affinity were performed by incubating commercially purchased membranes prepared from cells expressing each receptor subtype (8 μg pro) with 0.5 nM ^3H-CP55,940, a non-selective cannabinoid agonist, along with concentrations of drug ranging from 0.0001-3 μM in Buffer A (5 mM MgCl2, 2.5 mM EDTA and […] BSA). Non-specific binding was defined in the presence of 10 μM CP55,940. For saturation studies, concentrations of ^3H-CP55,940 ranging from 0.1-5 nM were incubated with membranes in the presence and absence of 10 μM CP55,940. Assays were terminated after incubation for 1½ hours by rapid filtration onto 0.3% polyethylenamine treated GF/C filterplates using a BRANDEL cell harvester. […]
The dissociation constant (Kd) of ^3H-CP55,940 at the CB1 and CB2 receptor were determined by plotting specific binding at each concentration of radioligand, and analysis by non-linear regression. For competition studies, the concentration of each drug that inhibited 50 percent of ^3H-CP55,940 binding (IC50) was determined by non-linear regression analysis of the radioligand displacement curves. Affinity constants (Ki) were calculated using the equation derived by Cheng and Prusoff (1973), defined as: IC50/1+[conc. ligand/Kd].

T1 sequence (P21554 whole entry): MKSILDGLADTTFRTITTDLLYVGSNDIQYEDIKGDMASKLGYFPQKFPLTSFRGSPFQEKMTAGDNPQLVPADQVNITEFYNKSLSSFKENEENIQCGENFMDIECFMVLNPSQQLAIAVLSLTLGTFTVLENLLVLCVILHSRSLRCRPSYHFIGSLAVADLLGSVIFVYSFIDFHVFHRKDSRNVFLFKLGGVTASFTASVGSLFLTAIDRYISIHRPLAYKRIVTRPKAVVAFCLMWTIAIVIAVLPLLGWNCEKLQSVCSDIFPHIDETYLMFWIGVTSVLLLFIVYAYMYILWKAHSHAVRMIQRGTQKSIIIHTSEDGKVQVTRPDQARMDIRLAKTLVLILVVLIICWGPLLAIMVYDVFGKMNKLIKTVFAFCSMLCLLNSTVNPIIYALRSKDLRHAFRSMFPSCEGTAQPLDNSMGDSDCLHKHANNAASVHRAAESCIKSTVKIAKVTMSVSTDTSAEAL

O=C(NC1CCCC1)C1CCC(c2ccc(Cl)cc2)=C(c2ccc(Cl)cc2)C1 (stereo not shown) [Compound 180]
Ki: 1 to 10 nM
